The test system of test [1] is Rattus norvegicus. In words: Antidiuretic activity in intravenous antidiuretic assay in rats under ethanol anesthesia. In kind it is functional, Urine.
Test [2] is filed under the species Rattus norvegicus. In words: Effective dose for anti-vasopressor potency to reduce the response to 2x units of agonist to equal the response to 1x units. In kind it is functional.
The species entered for test [3] is Rattus norvegicus. As to the kind of experiment: In vitro anti-oxytocic potency was recorded in absence of Mg2+ in rat uteri. In kind it is functional. The following applies: read-out: pA2 (converted).
The species entered for test [4] is Rattus norvegicus. In words: In vitro anti-oxytocic potency was recorded in presence of 0.5 mM Mg2+ in rat uteri. In kind it is functional. As to conditions: read-out: pA2 (converted).
The test system of test [5] is Rattus norvegicus. In words: Compound evaluated in vivo and negative logarithm of effective dose divided by estimated volume of distribution (67 mL/kg) determined. It counts as ADME, organism-based. As to conditions: read-out: pA2 (converted).

The source of these data is ChEMBL document CHEMBL1122193, “Design of potent and selective antagonists of the vasopressor responses to arginine-vasopressin” (J Med Chem, 1982).

Residues, ends and D or L forms follow the SMILES beside them.

In turn, `CC(C)[C@@H]1NC(=O)[C@H](Cc2ccccc2)NC(=O)[C@H](Cc2ccc(O)cc2)NC(=O)CC2(CCCCC2)SSC[C@@H](C(=O)N2CCC[C@H]2C(=O)N[C@@H](CCCN=C(N)N)C(=O)NCC(N)=O)NC(=O)[C@H](CC(N)=O)NC1=O` (HELM PEPTIDE1{Y.F.V.N.C.P.R.G.[am]}|CHEM1{[O=C(CC1(S[*:2])CCCCC1)[*:1]]}$PEPTIDE1,CHEM1,1:R1-1:R1|PEPTIDE1,CHEM1,5:R3-1:R2$$$V2.0) registered an Antidiuretic activity in test [1] of 0.32 U/mg. Moreover, the Effective dose in test [2] turned out to be 0.76 nM/kg.
In the same order, the values of `CCC1(CC)CC(=O)N[C@@H](Cc2ccc(O)cc2)C(=O)N[C@@H](Cc2ccccc2)C(=O)N[C@@H](CCC(N)=O)C(=O)N[C@@H](CC(N)=O)C(=O)N[C@H](C(=O)N2CCC[C@H]2C(=O)N[C@@H](CCCN=C(N)N)C(=O)NCC(N)=O)CSS1` [listing 1 of 2 here] are 0.38 U/mg and 0.32 nM/kg.
With `CCC1(CC)CC(=O)N[C@@H](Cc2ccc(O)cc2)C(=O)N[C@H](Cc2ccccc2)C(=O)N[C@@H](CCC(N)=O)C(=O)N[C@H](CC(N)=O)C(=O)N[C@@H](C(=O)N2CCC[C@H]2C(=O)N[C@H](CCCN=C(N)N)C(=O)NCC(N)=O)CSS1`, the Antidiuretic activity in test [1] came to 0.06 U/mg. Besides, in test [2], the Effective dose was found to be 0.81 nM/kg. Also, the Kb in test [3] was 112 nM; in test [4], 200 nM; in test [5], 11 nM.
Take `NC(=O)CC[C@@H]1NC(=O)[C@H](Cc2ccccc2)NC(=O)[C@H](Cc2ccc(O)cc2)NC(=O)CC2(CCCCC2)SSC[C@@H](C(=O)N2CCC[C@H]2C(=O)N[C@@H](CCCN=C(N)N)C(=O)NCC(N)=O)NC(=O)[C@H](CC(N)=O)NC1=O` [listing 1 of 2 here]: the figures for the Kb in test [3] and in test [4] were 47.9 nM and 53.7 nM, respectively.
For `NC(=O)CC[C@@H]1NC(=O)[C@H](Cc2ccccc2)NC(=O)[C@H](Cc2ccc(O)cc2)NC(=O)CC2(CCCCC2)SSC[C@@H](C(=O)N2CCC[C@H]2C(=O)N[C@@H](CCCN=C(N)N)C(=O)NCC(N)=O)NC(=O)[C@H](CC(N)=O)NC1=O` [listing 2 of 2 here], the Effective dose in test [2] was determined as 0.34 nM/kg.
In test [1], `CC(C)[C@@H]1NC(=O)[C@@H](Cc2ccccc2)NC(=O)[C@H](Cc2ccc(O)cc2)NC(=O)CC(C)(C)SSC[C@H](C(=O)N2CCC[C@H]2C(=O)N[C@@H](CCCN=C(N)N)C(=O)NCC(N)=O)NC(=O)[C@@H](CC(N)=O)NC1=O` displayed an Antidiuretic activity of 312 U/mg. This compound gave an Effective dose in test [2] of 0.84 nM/kg. Also, the Kb in test [3] was 8.13 nM; in test [4] it was 19.1 nM; in test [5] it was 12 nM.
In test [1], `CCC1(CC)CC(=O)N[C@@H](Cc2ccc(O)cc2)C(=O)N[C@H](Cc2ccccc2)C(=O)N[C@@H](C(C)C)C(=O)N[C@H](CC(N)=O)C(=O)N[C@@H](C(=O)N2CCC[C@H]2C(=O)N[C@@H](CCCN=C(N)N)C(=O)NCC(N)=O)CSS1` registered an Antidiuretic activity of 1.5 U/mg. The same compound came in with an Effective dose in test [2] of 0.38 nM/kg. The values for the Kb in test [3], in test [4] and in test [5] were 47.9 nM, 21.9 nM and 5.13 nM, respectively.
Regarding `CC(C)[C@@H]1NC(=O)[C@H](Cc2ccccc2)NC(=O)[C@H](Cc2ccc(O)cc2)NC(=O)CC2(CCCCC2)SSC[C@@H](C(=O)N2CCC[C@H]2C(=O)N[C@H](CCCN=C(N)N)C(=O)NCC(N)=O)NC(=O)[C@H](CC(N)=O)NC1=O` (HELM PEPTIDE1{Y.F.V.N.C.P.[dR].G.[am]}|CHEM1{[O=C(CC1(S[*:2])CCCCC1)[*:1]]}$PEPTIDE1,CHEM1,1:R1-1:R1|PEPTIDE1,CHEM1,5:R3-1:R2$$$V2.0) [listing 1 of 2 here], the Kb was 234 nM in test [3] and 589 nM in test [4].
Consider `CCC1(CC)CC(=O)N[C@@H](Cc2ccc(O)cc2)C(=O)N[C@H](Cc2ccccc2)C(=O)N[C@@H](C(C)C)C(=O)N[C@H](CC(N)=O)C(=O)N[C@@H](C(=O)N2CCC[C@H]2C(=O)N[C@H](CCCN=C(N)N)C(=O)NCC(N)=O)CSS1`, for which, in test [1], the Antidiuretic activity turned out to be 0.71 U/mg. The Effective dose in test [2] worked out at 0.35 nM/kg. For the same compound, the Kb in test [3] is 51.3 nM; in test [4], 61.7 nM; in test [5], 6.61 nM.
With `CCC1(CC)CC(=O)N[C@@H](Cc2ccc(O)cc2)C(=O)N[C@@H](Cc2ccccc2)C(=O)N[C@@H](CCC(N)=O)C(=O)N[C@@H](CC(N)=O)C(=O)N[C@H](C(=O)N2CCC[C@H]2C(=O)N[C@@H](CCCN=C(N)N)C(=O)NCC(N)=O)CSS1` [listing 2 of 2 here], the figures for the Kb in test [3], in test [4] and in test [5] were 50.1 nM, 69.2 nM and 4.37 nM, respectively.
`CC(C)[C@@H]1NC(=O)[C@H](Cc2ccccc2)NC(=O)[C@H](Cc2ccc(O)cc2)NC(=O)CC(C)(C)SSC[C@@H](C(=O)N2CCC[C@H]2C(=O)N[C@H](CCCN=C(N)N)C(=O)NCC(N)=O)NC(=O)[C@H](CC(N)=O)NC1=O` [listing 1 of 2 here]: in test [4], the Kb was 75.9 nM.
As for `NC(=O)CC[C@@H]1NC(=O)[C@H](Cc2ccccc2)NC(=O)[C@H](Cc2ccc(O)cc2)NC(=O)CC2(CCCCC2)SSC[C@@H](C(=O)N2CCC[C@H]2C(=O)N[C@H](CCCN=C(N)N)C(=O)NCC(N)=O)NC(=O)[C@H](CC(N)=O)NC1=O` [listing 1 of 2 here], the Kb was 107 nM in test [3], 257 nM in test [4] and 3.02 nM in test [5].
Take `CC1(C)CC(=O)N[C@@H](Cc2ccc(O)cc2)C(=O)N[C@@H](Cc2ccccc2)C(=O)N[C@@H](CCC(N)=O)C(=O)N[C@@H](CC(N)=O)C(=O)N[C@H](C(=O)N2CCC[C@H]2C(=O)N[C@@H](CCCN=C(N)N)C(=O)NCC(N)=O)CSS1` [listing 1 of 2 here]: the Kb in test [4] was 1170 nM.
As to `CC(C)[C@@H]1NC(=O)[C@H](Cc2ccccc2)NC(=O)[C@H](Cc2ccc(O)cc2)NC(=O)CC2(CCCCC2)SSC[C@@H](C(=O)N2CCC[C@H]2C(=O)N[C@H](CCCN=C(N)N)C(=O)NCC(N)=O)NC(=O)[C@H](CC(N)=O)NC1=O` (HELM PEPTIDE1{Y.F.V.N.C.P.[dR].G.[am]}|CHEM1{[O=C(CC1(S[*:2])CCCCC1)[*:1]]}$PEPTIDE1,CHEM1,1:R1-1:R1|PEPTIDE1,CHEM1,5:R3-1:R2$$$V2.0) [listing 2 of 2 here], the Effective dose in test [2] is 1.5 nM/kg.
In turn, `CC1(C)CC(=O)N[C@@H](Cc2ccc(O)cc2)C(=O)N[C@H](Cc2ccccc2)C(=O)N[C@@H](CCC(N)=O)C(=O)N[C@H](CC(N)=O)C(=O)N[C@@H](C(=O)N2CCC[C@H]2C(=O)N[C@H](CCCN=C(N)N)C(=O)NCC(N)=O)CSS1` came in with an Antidiuretic activity in test [1] of 5.8 U/mg. Also, the Effective dose in test [2] came out at 2.5 nM/kg. In addition, the Kb in test [3] was 13.5 nM; in test [4], 195 nM; in test [5], 35.5 nM.
For the compound `CC1(C)CC(=O)N[C@@H](Cc2ccc(O)cc2)C(=O)N[C@@H](Cc2ccccc2)C(=O)N[C@@H](CCC(N)=O)C(=O)N[C@@H](CC(N)=O)C(=O)N[C@H](C(=O)N2CCC[C@H]2C(=O)N[C@@H](CCCN=C(N)N)C(=O)NCC(N)=O)CSS1` [listing 2 of 2 here], the Effective dose in test [2] came out at 3.2 nM/kg.
`NC(=O)CC[C@@H]1NC(=O)[C@H](Cc2ccccc2)NC(=O)[C@H](Cc2ccc(O)cc2)NC(=O)CC2(CCCCC2)SSC[C@@H](C(=O)N2CCC[C@H]2C(=O)N[C@H](CCCN=C(N)N)C(=O)NCC(N)=O)NC(=O)[C@H](CC(N)=O)NC1=O` [listing 2 of 2 here] displayed an Antidiuretic activity in test [1] of 0.31 U/mg. For the same compound, in test [2], the Effective dose turned out to be 0.2 nM/kg.
`CC(C)[C@@H]1NC(=O)[C@H](Cc2ccccc2)NC(=O)[C@H](Cc2ccc(O)cc2)NC(=O)CC(C)(C)SSC[C@@H](C(=O)N2CCC[C@H]2C(=O)N[C@H](CCCN=C(N)N)C(=O)NCC(N)=O)NC(=O)[C@H](CC(N)=O)NC1=O` [listing 2 of 2 here]: the Antidiuretic activity in test [1] was 123 U/mg. Also, the Effective dose in test [2] turned out to be 1.1 nM/kg.
